# From patent US7144991B2, “Streptavidin expressed gene fusions and methods of use thereof” (Aletheon Pharmaceuticals, Inc., priority 1999, dated 2006)
# Where “and” joins values, the source holds several entries; their conditions need not be identical. Equal values may be shown once.
# Assay: Biotin binding capacity
# Conditions: 9-fold molar excess of [3H]biotin
# Procedure: Biotin Binding and Dissociation. Biotin binding capacity was determined by incubation of a known quantity of fusion protein with a 9-fold molar excess of [3H]biotin (NEN Research Products, Boston, Mass.). After removal of uncomplexed biotin using streptavidin-immobilized beads (Pierce Chemical; Rockford, Ill.), the amount of [^3H]biotin associated with the fusion protein was determined.
# Biotin Binding Capacity. Biotin binding capacity was determined by incubation of a known quantity of fusion protein with a 9-fold molar excess of [^3H]biotin (NEN Research Products, Boston, Mass.). After removal of uncomplexed biotin using streptavidin-immobilized beads (Pierce Chemical; Rockford, Ill.), the amount of [^3H]biotin associated with the fusion protein was determined.
substance,measurement,value
"recombinant streptavidin: recombinant streptavidin (Roche Biochemical), control in biotin binding and dissociation",Biotin binding capacity (average biotins bound),4 biotins and 4.0 biotins
